# Source: ChEMBL document CHEMBL1201862, “PubChem BioAssay data set” (2004)
# The source made the active and inactive calls. Cut-off read from the data, not from the text of the source, for most assays here: actives have a measured EC50 and inactives only a lower limit.
# Tests used:
# [1] = biological target: T1, Corticotropin-releasing factor receptor 2/Corticotropin-releasing factor-binding protein (Homo sapiens, UniProt P24387+Q13324); assay: Dose Response confirmation of uHTS hits for small molecule antagonists of the CRF-binding protein and CRF-R2 receptor complex.; assay type: functional; settings: read-out: IC50_Mean
# T1 sequence (Q13324 whole entry): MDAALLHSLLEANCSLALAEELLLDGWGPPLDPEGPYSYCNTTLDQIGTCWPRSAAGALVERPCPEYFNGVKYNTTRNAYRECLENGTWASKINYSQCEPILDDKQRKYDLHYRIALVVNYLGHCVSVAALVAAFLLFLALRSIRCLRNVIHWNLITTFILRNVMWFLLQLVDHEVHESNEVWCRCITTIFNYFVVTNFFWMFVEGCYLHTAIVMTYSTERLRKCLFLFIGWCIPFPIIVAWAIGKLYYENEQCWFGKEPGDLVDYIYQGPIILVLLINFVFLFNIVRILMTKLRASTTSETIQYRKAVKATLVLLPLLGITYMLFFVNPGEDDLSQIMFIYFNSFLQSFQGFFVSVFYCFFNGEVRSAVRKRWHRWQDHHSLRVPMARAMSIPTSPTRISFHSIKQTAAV
# T1 sequence (P24387 whole entry): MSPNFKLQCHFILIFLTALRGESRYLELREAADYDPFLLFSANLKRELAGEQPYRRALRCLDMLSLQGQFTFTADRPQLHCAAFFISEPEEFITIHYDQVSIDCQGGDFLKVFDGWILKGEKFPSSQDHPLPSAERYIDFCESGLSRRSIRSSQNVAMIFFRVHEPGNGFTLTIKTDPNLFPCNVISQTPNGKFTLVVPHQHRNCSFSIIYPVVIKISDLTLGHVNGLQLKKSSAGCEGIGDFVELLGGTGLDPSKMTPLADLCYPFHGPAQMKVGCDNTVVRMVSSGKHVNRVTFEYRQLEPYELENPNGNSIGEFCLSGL
# [2] = biological target: T1, Corticotropin-releasing factor receptor 2/Corticotropin-releasing factor-binding protein; assay: activators of CRF receptor 2 with binding protein – uHTS hits, confirmation (AID 602473); assay type: functional; settings: read-out: EC50_Mean
# [3] = biological target: Cytochrome P450 2D6 (Homo sapiens, UniProt P10635);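 note: CYP2D6 member of a cytochrome P450 panel assay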
# Cytochrome P450 2D6, sequence (P10635 whole entry): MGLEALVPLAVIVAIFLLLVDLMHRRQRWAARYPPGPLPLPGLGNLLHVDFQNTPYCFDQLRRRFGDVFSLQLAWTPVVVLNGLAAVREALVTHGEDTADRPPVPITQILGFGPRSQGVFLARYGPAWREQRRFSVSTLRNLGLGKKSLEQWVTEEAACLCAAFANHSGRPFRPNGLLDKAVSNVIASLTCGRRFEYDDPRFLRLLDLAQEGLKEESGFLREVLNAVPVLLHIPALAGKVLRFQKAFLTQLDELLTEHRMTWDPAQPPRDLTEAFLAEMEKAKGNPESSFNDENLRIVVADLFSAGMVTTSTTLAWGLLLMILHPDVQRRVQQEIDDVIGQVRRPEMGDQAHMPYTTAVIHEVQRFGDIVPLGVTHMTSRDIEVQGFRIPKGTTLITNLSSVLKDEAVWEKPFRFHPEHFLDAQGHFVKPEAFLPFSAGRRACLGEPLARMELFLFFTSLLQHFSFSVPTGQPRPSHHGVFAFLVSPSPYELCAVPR
# [4] = biological target: T2, Rac GTPase-activating protein 1 (Homo sapiens, UniProt Q9H0H5); assay: blockers of MgcRacGAP-driven Rac1 GTP hydrolysis – biochemical, ADP Hunter fluorescence, primary and confirmatory, confirmation (AID 624330); assay type: functional
# T2 sequence (Q9H0H5 whole entry): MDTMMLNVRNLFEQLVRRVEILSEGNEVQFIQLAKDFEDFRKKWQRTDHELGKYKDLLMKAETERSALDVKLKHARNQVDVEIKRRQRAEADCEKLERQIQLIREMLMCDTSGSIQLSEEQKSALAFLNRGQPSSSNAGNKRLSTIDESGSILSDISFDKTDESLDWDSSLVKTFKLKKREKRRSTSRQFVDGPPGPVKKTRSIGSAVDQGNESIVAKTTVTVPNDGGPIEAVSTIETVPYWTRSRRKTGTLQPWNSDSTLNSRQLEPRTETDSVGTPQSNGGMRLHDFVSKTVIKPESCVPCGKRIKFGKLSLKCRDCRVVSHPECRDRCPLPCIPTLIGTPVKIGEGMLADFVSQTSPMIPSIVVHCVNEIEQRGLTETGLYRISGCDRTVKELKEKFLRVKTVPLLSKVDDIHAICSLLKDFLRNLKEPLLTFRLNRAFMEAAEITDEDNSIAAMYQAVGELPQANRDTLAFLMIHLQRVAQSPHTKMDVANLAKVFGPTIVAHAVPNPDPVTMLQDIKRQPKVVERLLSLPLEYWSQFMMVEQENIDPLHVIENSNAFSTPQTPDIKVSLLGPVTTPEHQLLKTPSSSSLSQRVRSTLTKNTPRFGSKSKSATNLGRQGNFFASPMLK
# [5] = biological target: Cytochrome P450 3A4 (Homo sapiens, UniProt P08684);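 note: CYP3A4 tested as one member of a cytochrome P450 panel screen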
# Cytochrome P450 3A4, sequence (P08684 whole entry): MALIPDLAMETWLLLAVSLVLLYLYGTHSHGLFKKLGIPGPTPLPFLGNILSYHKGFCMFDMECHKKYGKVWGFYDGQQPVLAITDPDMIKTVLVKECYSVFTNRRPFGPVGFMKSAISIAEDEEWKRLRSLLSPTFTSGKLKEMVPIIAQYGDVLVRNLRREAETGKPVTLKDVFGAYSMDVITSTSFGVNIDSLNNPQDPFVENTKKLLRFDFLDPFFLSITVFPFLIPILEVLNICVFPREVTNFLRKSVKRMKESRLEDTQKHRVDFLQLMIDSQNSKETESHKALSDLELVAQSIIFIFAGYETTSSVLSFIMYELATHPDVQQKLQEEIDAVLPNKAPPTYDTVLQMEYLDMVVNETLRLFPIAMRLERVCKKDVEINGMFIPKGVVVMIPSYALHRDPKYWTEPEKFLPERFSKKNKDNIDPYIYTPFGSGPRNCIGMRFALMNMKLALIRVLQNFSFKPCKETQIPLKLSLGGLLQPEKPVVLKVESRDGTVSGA
# [6] = biological target: T3, Cytochrome P450 1A2 (Homo sapiens, UniProt P05177);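 note: PubChem cytochrome P450 panel assay, CYP1A2 panel member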
# T3 sequence (P05177 whole entry): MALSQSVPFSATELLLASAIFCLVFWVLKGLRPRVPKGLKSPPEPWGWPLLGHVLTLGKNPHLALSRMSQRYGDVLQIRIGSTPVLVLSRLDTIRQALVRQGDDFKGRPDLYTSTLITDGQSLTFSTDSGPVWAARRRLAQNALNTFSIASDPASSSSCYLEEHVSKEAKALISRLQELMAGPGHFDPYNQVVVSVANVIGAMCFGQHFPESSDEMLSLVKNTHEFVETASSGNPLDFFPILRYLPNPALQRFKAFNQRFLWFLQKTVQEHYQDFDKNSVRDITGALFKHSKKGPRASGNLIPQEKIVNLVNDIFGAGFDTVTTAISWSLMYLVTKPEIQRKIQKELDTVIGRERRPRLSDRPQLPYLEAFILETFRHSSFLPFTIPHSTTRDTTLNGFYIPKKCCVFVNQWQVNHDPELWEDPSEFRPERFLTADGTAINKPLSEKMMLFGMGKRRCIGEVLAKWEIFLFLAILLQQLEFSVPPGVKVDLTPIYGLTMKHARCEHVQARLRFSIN
# [7] = NIH-3T3 fibroblast cytotoxicity, dose response, cytotoxicity control, cell-based, fluorescence, Alamar Blue, secondary assay (AID 2327); assay type: functional;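 note: NIH-3T3 mouse fibroblasts cultured with fluconazole at 8 µg/mL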
# [8] = fluconazole-exposed Candida albicans growth modulators – fluorescence, retest, confirmation (AID 2467); assay type: functional, cell-based
# [9] = biological target: Paired box protein Pax-8 (Homo sapiens, UniProt Q06710); assay: PAX8 transcriptional activity inhibition in RMG-I – RMG-I cells, luciferase, cherry-pick, dose response (AID 687027); assay type: functional, cell-based;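 note: luciferase reporter driven by Pax8 target thyroperoxidase promoter measured by SteadyGlo luminescence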
# Paired box protein Pax-8, sequence (Q06710 whole entry): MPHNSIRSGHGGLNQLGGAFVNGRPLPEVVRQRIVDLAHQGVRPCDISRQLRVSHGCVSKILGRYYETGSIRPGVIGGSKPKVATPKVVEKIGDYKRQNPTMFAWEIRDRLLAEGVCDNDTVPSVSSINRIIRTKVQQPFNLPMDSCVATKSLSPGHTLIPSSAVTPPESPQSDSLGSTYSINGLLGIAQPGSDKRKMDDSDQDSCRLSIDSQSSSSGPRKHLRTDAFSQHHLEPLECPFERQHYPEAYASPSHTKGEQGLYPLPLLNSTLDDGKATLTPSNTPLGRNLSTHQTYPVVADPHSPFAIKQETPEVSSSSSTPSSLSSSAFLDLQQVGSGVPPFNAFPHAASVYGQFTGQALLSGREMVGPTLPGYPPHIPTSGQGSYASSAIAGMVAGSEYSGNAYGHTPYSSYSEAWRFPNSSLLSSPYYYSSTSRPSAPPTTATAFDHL
# [10] = Luminescence Cell-Based Dose Confirmation HTS to Identify Activators of 5'UTR Stem-Loop Driven Alpha-Synuclein mRNA Translation in H4 Neuroglioblastoma Cells. [Related pubchem assays: 1829 (Project Summary), 1814 (Primary HTS)]; assay type: functional
# [11] = Luminescence Cell-Based Dose Response HTS to Identify Activators of Luciferase Translation or Activity in H4 […] Cells. [Related pubchem assays: 1829 (Project Summary), 1814 (Primary HTS)]; assay type: functional
# [12] = tested on: INS1; assay: INS-1E survival protection against cytokine death – cell-based, luminescence, retest, dose response (AID 449756); assay type: functional; settings: Rattus norvegicus;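 note: cell death triggered by IL-1 beta plus TNF-alpha plus IFN-gamma mixture; protective hits raise ATP signal compared with cytokine alone wells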
# [13] = tested on: Streptococcus; assay: GAS UMAA2166 growth inhibition – luminescence, BacTiterGlo, counter-screen for streptokinase expression inhibitor project, dose response (AID 1915); assay type: functional, organism-based;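 note: potency for reduction of bacterial viability or growth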
# [14] = tested on: Streptococcus sp. 'group A'; assay: Streptococcus pyogenes SK(-)GAS viability under kanamycin – luminescence, BacTiterGlo, confirmation, counter-screen for streptokinase expression inhibitor project, dose response (AID 1900); assay type: functional, organism-based
# [15] = biological target: T4, Streptokinase A (Streptococcus pyogenes serotype M1, UniProt P10520); assay: viability-normalized secreted streptokinase activity reduction – plasminogen activation absorbance, OD405, dose response (AID 1914); assay type: functional, Streptococcus pyogenes M1 GAS;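 note: secreted streptokinase activity via plasminogen activation per viability signal from cell pellet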
# T4 sequence (P10520 whole entry): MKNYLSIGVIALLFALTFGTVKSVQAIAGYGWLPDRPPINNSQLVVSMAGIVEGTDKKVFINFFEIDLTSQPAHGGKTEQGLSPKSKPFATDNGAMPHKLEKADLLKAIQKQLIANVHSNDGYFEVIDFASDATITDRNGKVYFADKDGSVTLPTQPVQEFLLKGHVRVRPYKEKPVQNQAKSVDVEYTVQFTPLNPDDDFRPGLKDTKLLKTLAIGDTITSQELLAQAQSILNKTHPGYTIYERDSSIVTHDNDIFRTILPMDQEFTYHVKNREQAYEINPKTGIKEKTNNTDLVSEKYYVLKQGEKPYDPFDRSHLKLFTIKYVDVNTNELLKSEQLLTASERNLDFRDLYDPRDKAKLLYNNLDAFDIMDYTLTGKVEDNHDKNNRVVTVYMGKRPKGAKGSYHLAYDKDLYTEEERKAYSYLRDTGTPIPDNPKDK
smiles,measurement,setting,value
COc1ccc(Cc2nnc(NC(=O)Nc3ccc(C)cc3)s2)cc1OC,IC50,[1],> 47.1 µM (inactive)
same,EC50,[2],> 53 µM (inactive)
CC(C)NC(=S)N(CCc1ccncc1)C(C)C,IC50,[1],> 47.1 µM (inactive)
same,EC50,[2],> 53 µM (inactive)
CC1(C2CC2)NC(=O)N(CC(=O)Nc2ccccc2F)C1=O (stereo unspecified),IC50,[1],> 47.1 µM (inactive)
same,EC50,[2],> 53 µM (inactive)
COc1cc2c(CCNC(C)=O)c[nH]c2cc1O,AC50,[3],39.8 µM (inconclusive)
same,IC50,[4],52.3 µM (active)
same,AC50,[5],15.8 µM (inconclusive)
same,AC50,[6],31.6 µM (inconclusive)
O=C(COc1ccc2c(c1)CCC2)NCc1cccc(Cl)c1,EC50,[7],> 160 µM (inconclusive)
same,EC50,[8],> 38 µM (not active)
Oc1ccc(Cc2ccccc2)c2cccnc12,AC50,[9],4.48 µM (active)
CC(=O)N1CCC(=NNc2nc3ccccc3s2)CC1,EC50,[7],> 160 µM (inactive)
same,EC50,[8],> 38 µM (not active)
COCCCn1c(=S)[nH]c2sc3c(c2c1=O)CCCC3,IC50,[4],32.9 µM (active)
COc1cc(/C=C2/C(=N)N3C=C(C)SC3=NC2=O)ccc1O,IC50,[4],71.9 µM (active)
Cc1ccc(C(=O)Cn2ncsc2=N)cc1,EC50,[10],13.5 µM (active)
same,EC50,[11],16.8 µM (active)
CCCCN(C(=O)CSc1nnc[nH]1)c1c(N)n(Cc2ccccc2)c(=O)[nH]c1=O,IC50,[1],> 47.1 µM (inactive)
same,EC50,[2],> 53 µM (inactive)
CC12CCC(C/C1=N\OC(=O)c1c(F)cccc1F)C2(C)C (stereo unspecified),IC50,[1],> 47.1 µM (inactive)
same,EC50,[2],> 53 µM (inactive)
COC(=O)c1c(-c2cccs2)csc1NC(=O)c1cccnc1,EC50,[7],> 160 µM (inactive)
same,EC50,[8],2.49 µM (active)
O=C(Nc1ccccc1)c1ccccc1OCc1cccc([N+](=O)[O-])c1,IC50,[1],> 47.1 µM (inactive)
same,EC50,[2],> 53 µM (inactive)
Cc1cc(C)n2nc(Nc3ccccc3)cc2n1,EC50,[10],6.86 µM (active)
same,EC50,[11],15.8 µM (active)
N#Cc1c(Cl)nsc1NC(=O)c1ccccc1,EC50,[7],22.2 µM (active)
same,AC50,[12],3.29 µM (active)
same,EC50,[8],0.626 µM (active)
Cc1cccc(N2C(=O)NC(=O)/C(=C\c3ccc(N4CCOCC4)cc3)C2=O)c1,IC50,[1],> 47.1 µM (inactive)
same,EC50,[2],> 53 µM (inactive)
CCOc1cccc(-c2cc(-c3nnc(S)n3CC)c3ccccc3n2)c1,EC50,[7],> 160 µM (inactive)
same,EC50,[8],4.13 µM (active)
Cn1cc(CN2CCCC(C(=O)Nc3cccc(-c4cc5ccccc5[nH]4)c3)C2)cn1 (stereo unspecified),IC50,[1],> 47.1 µM (inactive)
same,EC50,[2],42.9 µM (active)
COCC1CCN(C(=O)CCc2nnc(C3(c4ccc(Cl)cc4)CCC3)o2)C1 (stereo unspecified),EC50,[13],> 150 µM (not active)
same,EC50,[14],> 150 µM (not active)
same,EC50,[15],> 150 µM (not active)
COc1cc(OC)c([C@H]2C=C(C)[C@H]3C[C@@H]2C3(C)C)c(OC)c1,EC50,[13],9.95 µM (active)
same,EC50,[14],4.7 µM (active)
same,EC50,[15],63.3 µM (active)
Fc1ccccc1CNc1ccc(Cl)c(Cl)c1,EC50,[13],63.8 µM (active)
same,EC50,[14],11.4 µM (active)
same,EC50,[15],> 150 µM (not active)
CN1C(=O)/C(=C/c2cn(CC(=O)N3CCCCC3)c3ccccc23)NC1=S,EC50,[7],> 150 µM (inactive)
same,EC50,[8],> 38 µM (not active)
COc1ccccc1-c1ccc2c(c1)O[C@H](CN(C)Cc1ccc3c(c1)OCO3)[C@H](C)CN([C@@H](C)CO)S2(=O)=O,AC50,[9],13.5 µM (active)
COc1ccc(S(=O)(=O)Nc2c(C)n(C)n(-c3ccccc3)c2=O)cc1C(=O)O,IC50,[1],> 47.1 µM (inactive)
same,EC50,[2],> 53 µM (inactive)
C/C(=N/NC(=O)CNC(=O)c1cccnc1)c1cccc([N+](=O)[O-])c1,EC50,[13],> 150 µM (not active)
same,EC50,[14],> 150 µM (not active)
same,EC50,[15],> 150 µM (not active)
Cc1cc(C(=O)Nc2ccc3c(c2)OCCO3)nn1C(C)(C)C,IC50,[1],> 47.1 µM (inactive)
same,EC50,[2],> 53 µM (inactive)
FC(F)(F)c1cccc(-c2nc3nc(Cl)c(Cl)nc3[nH]2)c1,AC50,[12],3.23 µM (active)
same,AC50,[5],5.01 µM (inconclusive)
same,EC50,[13],94.8 µM (active)
same,EC50,[14],7.96 µM (active)
same,EC50,[15],> 150 µM (not active)
CC(C)(C)N/N=C1\CC(c2ccccc2)Oc2ccccc21 (stereo unspecified),EC50,[13],> 150 µM (not active)
same,EC50,[14],6.48 µM (active)
same,EC50,[15],7.08 µM (active)
O=C(NCc1cn2ccccc2n1)C1CCC(=O)N(Cc2ccccc2F)C1 (stereo unspecified),IC50,[1],> 47.1 µM (inactive)
same,EC50,[2],> 53 µM (inactive)
O=C1C2CCN(CC2)C1Cc1ccc(OCc2ccccc2)cc1 (stereo unspecified),EC50,[7],24 µM (inconclusive)
same,EC50,[8],2.41 µM (active)
C=CCNc1ncnc2c1[nH]c1ccc(Cl)cc12,EC50,[10],89.5 µM (active)
same,EC50,[11],43 µM (active)
O=C(NCc1ccc2c(c1)OCO2)Nc1ccc(F)cc1,EC50,[13],> 150 µM (not active)
same,EC50,[14],> 150 µM (not active)
same,EC50,[15],> 150 µM (not active)
COc1cc(/C=C/C(=O)OCC(=O)NC(=O)NC(C)(C)C)ccc1O,IC50,[4],57.5 µM (active)
C=CCOc1ccccc1CN1CCCN(C)CC1,IC50,[4],178 µM (active)
